Experimental data as given in PMC7853165 (Infectious Diseases and Therapy, 2021).
pKd: −log10 of the molar value. Read-outs that look alike come from different tables or passages of the source.

Experiments:
[1] = molecular target: T1, angiotensin-converting enzyme 2 (ACE2) (Homo sapiens, UniProt Q9BYF1); assay: SPR; format: binding
[2] = molecular target: T1, angiotensin-converting enzyme 2 (ACE2); assay: SPR; format: binding; remark: listed apart in the source

T1 sequence (Q9BYF1 18-805): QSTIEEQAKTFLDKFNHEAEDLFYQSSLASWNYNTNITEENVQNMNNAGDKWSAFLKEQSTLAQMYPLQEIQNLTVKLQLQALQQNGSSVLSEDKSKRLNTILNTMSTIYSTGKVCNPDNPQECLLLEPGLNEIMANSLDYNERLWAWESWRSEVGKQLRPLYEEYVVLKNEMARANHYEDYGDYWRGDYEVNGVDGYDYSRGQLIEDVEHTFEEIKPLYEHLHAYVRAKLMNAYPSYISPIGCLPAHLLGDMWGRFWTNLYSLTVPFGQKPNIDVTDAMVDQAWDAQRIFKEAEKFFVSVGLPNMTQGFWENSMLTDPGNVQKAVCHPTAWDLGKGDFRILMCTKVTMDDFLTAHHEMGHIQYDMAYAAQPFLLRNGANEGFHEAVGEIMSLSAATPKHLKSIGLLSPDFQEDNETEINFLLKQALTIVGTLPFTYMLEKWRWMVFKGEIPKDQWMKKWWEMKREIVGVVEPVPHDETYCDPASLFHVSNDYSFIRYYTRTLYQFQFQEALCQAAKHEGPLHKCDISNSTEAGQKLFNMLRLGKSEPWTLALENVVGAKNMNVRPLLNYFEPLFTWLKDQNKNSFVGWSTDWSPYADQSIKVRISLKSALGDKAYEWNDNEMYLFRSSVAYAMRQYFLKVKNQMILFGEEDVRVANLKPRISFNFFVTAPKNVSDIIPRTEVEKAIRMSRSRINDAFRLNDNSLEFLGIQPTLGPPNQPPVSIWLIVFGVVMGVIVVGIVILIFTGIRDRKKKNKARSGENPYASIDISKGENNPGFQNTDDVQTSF

| Structure (SMILES) | pKd [1] | pKd [2] |
| --- | --- | --- |
| CC(C)C[C@H](N[C@@H](Cc1cncn1Cc1cc(Cl)cc(Cl)c1)C(=O)O)C(=O)O [MLN-4760] | 4.18 |  |
| CC1=CC(=O)C(C(C)C)=CC1=O [thymoquinone] |  | 4.49 |
